Structures are written as SMILES. pEC50: −log10 of the molar value. Some results are limits rather than exact numbers.

This assay deals with HBV (2.2.15 cells). As to the kind of experiment: Antiviral activity in 2.2.15 cells: reduction of viral product accumulation (qPCR of lysates, HBsAg or HBeAg ELISA). Format: cell-based, hepatitis B virus (HBV). The settings on record: Hepatitis B virus, 120 h, day 5 post treatment, 50% reduction of viral product accumulation in lysates or supernatants vs no drug controls, readout (qPCR, HBsAg, HBeAg) not specified. The essentials:
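HBV-producing 2.2.15 cells, 35,000/well, treated with 5-fold serial compound dilutions at 0.5% final DMSO for 5 days. Lysate HBV DNA by qPCR or supernatant HBsAg/HBeAg by ELISA; EC50 is 50% reduction versus no-drug control, binned A<0.1 μM, B 0.1-1 μM, C>1 μM.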
In general terms: Quantitative PCR measures a nucleic acid by following its amplification.
`CC(C)[C@@H]1Cc2c(cc(-c3ccco3)c3c2CCO3)-c2cc(=O)c(C(=O)O)cn21` [Example 101, (S)-12-(furan-2-yl)-5-isopropyl-9-oxo-2,3,4,9-tetrahydro-5H-furo[3,2-f]pyrido[2,1-a]isoquinoline-8-carboxylic Acid]: the negative-log EC50 (pEC50) (commonly the EC50 on a negative log10 scale, so that one unit is a factor of ten) was above 7.00.
`CC(C)(C)[C@@H]1Cc2c(cc(N3CCCC3)c3c2CCO3)-c2cc(=O)c(C(=O)O)cn21` [Example 88, (S)-5-(tert-butyl)-9-oxo-12-(pyrrolidin-1-yl)-2,3,4,9-tetrahydro-5H-furo[3,2-f]pyrido[2,1-a]isoquinoline-8-carboxylic Acid] showed a negative-log EC50 (pEC50) above 7.00.
The same measure for `CC1(C)Cc2c3c(cc(-c4ccoc4)c2O1)-c1cc(=O)c(C(=O)O)cn1[C@H](C(C)(C)C)C3` [Example 133, (S)-5-(tert-butyl)-12-(furan-3-yl)-2,2-dimethyl-9-oxo-2,3,4,9-tetrahydro-5H-furo[3,2-f]pyrido[2,1-a]isoquinoline-8-carboxylic acid]: 6.00 to 7.00.
Molecule `COCCCCc1cc2c(cc1N1CC(F)(F)C1)-c1cc(=O)c(C(=O)O)cn1[C@H](C(C)(C)C)C2` [Example 153, (S)-6-(tert-butyl)-10-(3,3-difluoroazetidin-1-yl)-9-(4-methoxybutyl)-2-oxo-6,7-dihydro-2H-pyrido[2,1-a]isoquinoline-3-carboxylic Acid] had a negative logarithm of the EC50 (pEC50) above 7.00.
Regarding `COCCCOc1cc2c(cc1-c1ccn(C)n1)-c1cc(=O)c(C(=O)O)cn1[C@H]1[C@@H]2COC1(C)C` [Example 124, (3aS,12bR)-11-(3-methoxypropoxy)-3,3-dimethyl-10-(1-methyl-1H-pyrazol-3-yl)-7-oxo-3,3a,7,12b-tetrahydro-1H-furo[3,4-c]pyrido[2,1-a]isoquinoline-6-carboxylic Acid], the negative-log EC50 (pEC50) was above 7.00.
`COCCCOc1cc2c(cc1C1CCCCO1)-c1cc(=O)c(C(=O)O)cn1[C@H](C(C)(C)C)C2` (stereo partly drawn) [Example 41, (6S)-6-(tert-butyl)-9-(3-methoxypropoxy)-2-oxo-10-(tetrahydro-2H-pyran-2-yl)-6,7-dihydro-2H-pyrido[2,1-a]isoquinoline-3-carboxylic Acid] showed a pEC50 above 7.00.
`CC(C)(C)[C@@H]1Cc2c(cc(-c3cccnc3)c3c2CCO3)-c2cc(=O)c(C(=O)O)cn21` [Example 75, (S)-5-(tert-butyl)-9-oxo-12-(pyridin-3-yl)-2,3,4,9-tetrahydro-5H-furo[3,2-f]pyrido[2,1-a]isoquinoline-8-carboxylic Acid] showed a pEC50 above 7.00.
`CC1(C)Cc2c3c(cc(-c4cnsc4)c2O1)-c1cc(=O)c(C(=O)O)cn1[C@H](C(C)(C)C)C3` [Example 145, (S)-5-(tert-butyl)-12-(isothiazol-4-yl)-2,2-dimethyl-9-oxo-2,3,4,9-tetrahydro-5H-furo[3,2-f]pyrido[2,1-a]isoquinoline-8-carboxylic Acid] gave a pEC50 below 6.00.
`CC(C)(C)[C@@H]1Cc2c(cc(-c3ccccc3Cl)c3c2CCO3)-c2cc(=O)c(C(=O)O)cn21` [Example 76, (S)-5-(tert-butyl)-12-(2-chlorophenyl)-9-oxo-2,3,4,9-tetrahydro-5H-furo[3,2-f]pyrido[2,1-a]isoquinoline-8-carboxylic Acid] showed a pEC50 above 7.00.
The molecule `COCCCOc1cc2c(cc1-c1cccc(OC)c1)-c1cc(=O)c(C(=O)O)cn1[C@H]1[C@@H]2COC1(C)C` [Example 140, (3aS,12bR)-10-(3-methoxyphenyl)-11-(3-methoxypropoxy)-3,3-dimethyl-7-oxo-3,3a,7,12b-tetrahydro-1H-furo[3,4-c]pyrido[2,1-a]isoquinoline-6-carboxylic Acid] had a negative logarithm of the EC50 (pEC50) above 7.00.
The same measure for `COc1ccc(-c2cc3c(c4c2OCC4)C[C@@H](C(C)(C)C)n2cc(C(=O)O)c(=O)cc2-3)cc1` [Example 78, (S)-5-(tert-butyl)-12-(4-methoxyphenyl)-9-oxo-2,3,4,9-tetrahydro-5H-furo[3,2-f]pyrido[2,1-a]isoquinoline-8-carboxylic Acid]: above 7.00.
For `COCCCOc1cc2c(cc1-c1cccc(Cl)c1)-c1cc(=O)c(C(=O)O)cn1[C@H]1[C@@H]2COC1(C)C` [Example 138, (3aS,12bR)-10-(3-chlorophenyl)-11-(3-methoxypropoxy)-3,3-dimethyl-7-oxo-3,3a,7,12b-tetrahydro-1H-furo[3,4-c]pyrido[2,1-a]isoquinoline-6-carboxylic Acid], the pEC50 is above 7.00.
The same measure for `COCCCOc1cc2c(cc1N1CCCC1)-c1cc(=O)c(C(=O)O)cn1[C@@H](C(C)(C)C)C2` [Example 50, (R)-6-(tert-butyl)-9-(3-methoxypropoxy)-2-oxo-10-(pyrrolidin-1-yl)-6,7-dihydro-2H-pyrido[2,1-a]isoquinoline-3-carboxylic Acid]: above 7.00; for `CC(C)(C)[C@@H]1Cc2c(cc(-c3cccc(Cl)c3)c3c2CCO3)-c2cc(=O)c(C(=O)O)cn21` [Example 85, (S)-5-(tert-butyl)-12-(3-chlorophenyl)-9-oxo-2,3,4,9-tetrahydro-5H-furo[3,2-f]pyrido[2,1-a]isoquinoline-8-carboxylic Acid]: above 7.00.
The same measure for `COCCCOc1cc2c(cc1-c1ccc(OC(F)F)cc1)-c1cc(=O)c(C(=O)O)cn1[C@H](C(C)(C)C)C2` [Example 56, (S)-6-(tert-butyl)-10-(4-(difluoromethoxy)phenyl)-9-(3-methoxypropoxy)-2-oxo-6,7-dihydro-2H-pyrido[2,1-a]isoquinoline-3-carboxylic Acid]: above 7.00.
To `CCc1nnc(-c2cc3c(cc2OCCCOC)C[C@@H](C(C)(C)C)n2cc(C(=O)O)c(=O)cc2-3)o1` [Example 43, (S)-6-(tert-butyl)-10-(5-ethyl-1,3,4-oxadiazol-2-yl)-9-(3-methoxypropoxy)-2-oxo-6,7-dihydro-2H-pyrido[2,1-a]isoquinoline-3-carboxylic Acid] belongs above 7.00; to `COCCCCc1cc2c(cc1-c1ccc(F)cc1)-c1cc(=O)c(C(=O)O)cn1[C@H](C(C)(C)C)C2` [Example 134, (S)-6-(tert-butyl)-10-(4-fluorophenyl)-9-(4-methoxybutyl)-2-oxo-6,7-dihydro-2H-pyrido[2,1-a]isoquinoline-3-carboxylic Acid], above 7.00.
In turn, `CC(C)[C@@H]1Cc2c(cc(N3CCC3)c3c2CCO3)-c2cc(=O)c(C(=O)O)cn21` [Example 117, (S)-12-(azetidin-1-yl)-5-isopropyl-9-oxo-2,3,4,9-tetrahydro-5H-furo[3,2-f]pyrido[2,1-a]isoquinoline-8-carboxylic Acid] showed a pEC50 above 7.00.
The same measure for `COCCCOc1cc2c(cc1-c1ccco1)-c1cc(=O)c(C(=O)O)cn1[C@H]1[C@@H]2COC1(C)C` [Example 125, (3aS,12bR)-10-(furan-2-yl)-11-(3-methoxypropoxy)-3,3-dimethyl-7-oxo-3,3a,7,12b-tetrahydro-1H-furo[3,4-c]pyrido[2,1-a]isoquinoline-6-carboxylic Acid]: above 7.00; for `COCCCOc1cc2c(cc1-c1cccc(OC(F)(F)F)c1)-c1cc(=O)c(C(=O)O)cn1[C@H](C(C)(C)C)C2` [Example 57, (S)-6-(tert-butyl)-9-(3-methoxypropoxy)-2-oxo-10-(3-(trifluoromethoxy)phenyl)-6,7-dihydro-2H-pyrido[2,1-a]isoquinoline-3-carboxylic Acid]: below 6.00; for `COCCCOc1cc2c(cc1C1=COCCC1)-c1cc(=O)c(C(=O)O)cn1[C@H](C(C)(C)C)C2` [Example 42, (S)-6-(tert-butyl)-10-(3,4-dihydro-2H-pyran-5-yl)-9-(3-methoxypropoxy)-2-oxo-6,7-dihydro-2H-pyrido[2,1-a]isoquinoline-3-carboxylic Acid]: above 7.00.
For the molecule `CC(C)(C)[C@@H]1Cc2c(cc(N3CC(F)(F)C3)c3c2C[C@H](C(F)F)O3)-c2cc(=O)c(C(=O)O)cn21` [Example 155, (2R,5S)-5-(tert-butyl)-12-(3,3-difluoroazetidin-1-yl)-2-(difluoromethyl)-9-oxo-2,3,4,9-tetrahydro-5H-furo[3,2-f]pyrido[2,1-a]isoquinoline-8-carboxylic Acid], the pEC50 was below 6.00.
The same measure for `COCCCOc1cc2c(cc1-c1ccc(Cl)cc1)-c1cc(=O)c(C(=O)O)cn1[C@H]1[C@@H]2COC1(C)C` [Example 137, (3aS,12bR)-10-(4-chlorophenyl)-11-(3-methoxypropoxy)-3,3-dimethyl-7-oxo-3,3a,7,12b-tetrahydro-1H-furo[3,4-c]pyrido[2,1-a]isoquinoline-6-carboxylic Acid]: below 6.00; for `CC(C)(C)[C@@H]1Cc2c(cc(N3CC4(CCO4)C3)c3c2CCO3)-c2cc(=O)c(C(=O)O)cn21` [Example 120, (S)-5-(tert-butyl)-9-oxo-12-(1-oxa-6-azaspiro[3.3]heptan-6-yl)-2,3,4,9-tetrahydro-5H-furo[3,2-f]pyrido[2,1-a]isoquinoline-8-carboxylic Acid]: below 6.00; for `CC(C)[C@@H]1Cc2c(cc(-c3ccn(C)n3)c3c2CCO3)-c2cc(=O)c(C(=O)O)cn21` [Example 98, (S)-5-isopropyl-12-(1-methyl-1H-pyrazol-3-yl)-9-oxo-2,3,4,9-tetrahydro-5H-furo[3,2-f]pyrido[2,1-a]isoquinoline-8-carboxylic Acid]: below 6.00.
The same measure for `CC(C)(C)[C@@H]1Cc2c(cc(C3COC3)c3c2CCO3)-c2cc(=O)c(C(=O)O)cn21` [Example 131, (S)-5-(tert-butyl)-12-(oxetan-3-yl)-9-oxo-2,3,4,9-tetrahydro-5H-furo[3,2-f]pyrido[2,1-a]isoquinoline-8-carboxylic Acid]: above 7.00.
The same measure for `CC(C)[C@@H]1Cc2c(cc(-c3cccc(C(F)(F)F)c3)c3c2CCO3)-c2cc(=O)c(C(=O)O)cn21` [Example 95, (S)-5-isopropyl-9-oxo-12-(3-(trifluoromethyl)phenyl)-2,3,4,9-tetrahydro-5H-furo[3,2-f]pyrido[2,1-a]isoquinoline-8-carboxylic Acid]: below 6.00.
